Results: patent US9642861B2, “Methods of treating oral mucositis” (priority 2006, dated 2017)
Entries after “also recorded” stand apart in the source; their conditions may differ.

What was measured:
[1] = test system: oral mucositis induced in hamsters by acute radiation (40 Gy to left buccal cheek pouch); assay: ACT-02 (Example 1): acute radiation model of oral mucositis in hamsters, mucositis scoring; type: in vivo, Syrian Golden Hamsters; design: peak mucositis score (mean daily score): scale not given here
Excerpt: The objective of this study is to evaluate the effect of M40403, administered by either ip or topical routes, with 2 different schedules, on the frequency, severity and duration of oral mucositis induced in hamsters by acute radiation.
The acute radiation model in hamsters, developed by the Principal Investigator, has proven to be an accurate, efficient and cost-effective technique to provide a preliminary evaluation of anti-mucositis compounds (9). The course of mucositis in this model is well defined and results in peak scores approximately 14-16 Days following radiation. The acute model has little systemic toxicity, resulting in few hamster deaths, thus permitting the use of smaller groups (N=7-8) for initial efficacy studies. It has also been used to study specific mechanistic elements in the pathogenesis of mucositis. Molecules that show efficacy in the acute radiation model may be further evaluated in the more complex models of fractionated radiation, chemotherapy, or concomitant therapy.
In this study, an acute radiation dose of 40 Gy on day 0 was administered locally to the cheek pouch. Clinically significant mucositis was observed on days 12 through 28.
Forty-eight male Syrian Golden Hamsters were divided randomly into 6 groups of 8 animals and given an acute radiation dose of 40 Gy directed to their left buccal cheek pouch. This was accomplished by anesthetizing the animals and everting the left buccal pouch, while protecting the rest of the animal with a lead shield. Test materials were given topically or by ip injection twice daily as detailed in Table 1. Mucositis was evaluated clinically starting on Day 6, and continued on alternate days until day 28.
The grade of mucositis was scored, beginning on day 6, and for every second day thereafter, through and including day 28 (for scoring scheme, see Table 2 and FIG. 2). The effect on mucositis of each drug treatment compared to ip vehicle-treated controls was assessed according to the following parameters:
The difference in the number of days hamsters in each group have ulcerative (score≧3) mucositis.
On each evaluation day, the number of animals with a blinded mucositis score of ≧3 in each drug treatment group was compared to the vehicle-treated control group. Differences were compared on a cumulative basis and statistical significance was determined by chi-square analysis. Efficacy, in this analysis, is defined as a significant reduction in the number of days that a group of animals had ulcerations (scores ≧3) when compared to the control group.
For each evaluation day the scores of the control group were compared to those of the treated groups using non-parametric rank sum analysis. Treatment success was considered as a statistically significant lowering of scores in the treated group on 2 or more days from day 6 to day 28.
All forty-eight (48) male Syrian Golden Hamsters were given an acute radiation dose of 40 Gy directed to their left buccal cheek pouch. This was accomplished by anesthetizing the animals and everting the left buccal pouch, while protecting the rest of the animal with a lead shield. Test materials were given either topically or by ip injection twice daily as detailed in Table 1. Mucositis was evaluated clinically starting on day 6, and continuing on alternate days until day 28. The study timeline is depicted in FIG. 1. Dose levels were determined based on the results of a previous acute toxicity study (data not shown), and the levels shown in Table 1.
Mucositis was induced using a standardized acute radiation protocol. A single dose of radiation (40 Gy/dose) was administered to all animals on day 0. Radiation was generated with a 250 kilovolt potential (15-ma) source at a focal distance of 50 cm, hardened with a 0.35 mm Cu filtration system. Irradiation targeted the left buccal pouch mucosa at a rate of 3.2 Gy/minute. Prior to irradiation, animals were anesthetized with an intra-peritoneal injection of Ketamine (160 mg/kg) and Xylazine (8 mg/kg). […]

[2] = ACT-03 (Example 2): weights and survival; type: in vivo, Syrian Golden Hamsters; conditions: for Survival (animal status in score table): individual animal, by day 6
Excerpt: All animals were weighed daily and their survival recorded, in order to assess possible differences in animal weight among treatment groups as an indication for mucositis severity and/or possible toxicity resulting from the treatments.
All seventy-two (72) male Syrian Golden Hamsters were given an acute radiation dose of 40 Gy directed to their left buccal cheek pouch. This was accomplished by anesthetizing the animals and everting the left buccal pouch, while protecting the rest of the animal with a lead shield. Test materials were given either topically or by ip injection twice daily as detailed in Table 5. Mucositis was evaluated clinically starting on day 6, and continuing on alternate days until day 28. The study timeline is depicted in FIG. 7. Dose levels were determined based on the results of a previous acute toxicity study (data not published), and in the prior mucositis study of Example 1, shown in Table 5.
Male LVG Syrian Golden Hamsters (Charles River Laboratories), aged 5 to 6 weeks, with average body weight of […] at study commencement, were used. Animals were individually numbered using an ear punch and housed in small groups of approximately 8 animals per cage. Animals were acclimatized prior to study commencement. During this period of 3 days, the animals were observed daily in order to reject animals that presented in poor condition.
The significance of these differences was evaluated by calculating the mean area under the curve for the percentage weight gain for each animal and comparing the groups using a One-Way ANOVA test. There were significant differences between the vehicle control group and the group treated with M40403 at 30 mg/kg/dose once daily from day −1 to day 3 (P=0.039), he group treated with M40403 at 3 mg/kg/dose twice daily from day −1 to day 3 (P=0.040), the group treated with M40403 at 10 mg/kg/dose twice daily from day −1 to day 3 (0.018), the group treated with M40403 at 30 mg/kg/dose twice daily from day −1 to day 3 (P<0.001), the group treated with M40403 at 30 mg/kg/dose once daily from day 0 to day 3 (P=0.009) and the group treated with M40403 at 30 mg/kg/dose twice daily from day 0 to day 3 (P=0.002).

[3] = group 2: ip 3 mg/kg bid day −1 to 15
[4] = group 3: ip 30 mg/kg bid day −1 to 15
[5] = group 4: top 3 mg/ml bid, 0.2 ml per dose, day −1 to 15
[6] = group 5: top 30 mg/ml bid, 0.2 ml per dose, day −1 to 15
[7] = group 6: ip 30 mg/kg bid day −1 to 3

[Cl-].[Cl-].[Mn+2].c1cc2nc(c1)CN[C@@H]1CCCC[C@H]1NCCN[C@@H]1CCCC[C@H]1NC2 [M40403]
Chi Sq v control, days with mucositis score >=3 [1, 3]: 0.3440
Days <3 (animal days with a mucositis score below 3) [1, 3]: 126
Days >=3 (animal days with a mucositis score of 3 or more) [1, 3]: 66
day of peak mucositis score [1, 3]: 18 days
peak mucositis score (mean daily score) [1, 3]: 2.8
progression of mucositis severity compared with control group [1, 3]: very similar to that observed in the control group
Chi Sq v control, days with mucositis score >=3 [1, 4]: 0.9890
Days <3 (animal days with a mucositis score below 3) [1, 4]: 96
Days >=3 (animal days with a mucositis score of 3 or more) [1, 4]: 56
day of peak mucositis score [1, 4]: 18 days
peak mucositis score (mean daily score) [1, 4]: 3.0
progression of mucositis severity compared with control group [1, 4]: indistinguishable from that observed in groups 1 and 2
progression of mucositis severity compared with control group ([1]; group 4: top 3 mg/ml bid day −1 to 15): closely paralleled those in the control group
Chi Sq v control, days with mucositis score >=3 [1, 5]: 1.6760
Days <3 (animal days with a mucositis score below 3) [1, 5]: 119
Days >=3 (animal days with a mucositis score of 3 or more) [1, 5]: 73
progression of mucositis severity compared with control group ([1]; group 5: top 30 mg/ml bid day −1 to 15): showed a reduction of mucositis severity on day 10; also recorded: only slightly less than those in the control group
Chi Sq v control, days with mucositis score >=3 [1, 6]: 0.136
Days <3 (animal days with a mucositis score below 3) [1, 6]: 128
Days >=3 (animal days with a mucositis score of 3 or more) [1, 6]: 64
Chi Sq v control, days with mucositis score >=3 [1, 7]: 7.83
Days <3 (animal days with a mucositis score below 3) [1, 7]: 120
Days >=3 (animal days with a mucositis score of 3 or more) [1, 7]: 24
day of peak mucositis score [1, 7]: 14 days
peak mucositis score (mean daily score) [1, 7]: 3.0
progression of mucositis severity compared with control group ([1]; group 6: ip 30 mg/kg bid day −1 to 3, from day 16 to day 28): decreased much more rapidly than the control group
effect of topical dosing on weight and mucositis severity ([1]; topical dosing, 3 or 30 mg/ml bid day −1 to 15, formulation used here): did not appear to have any effect on either weight or mucositis severity
deaths during the study, all on the day of radiation (Day 0) ([2]; 30 mg/kg once daily day 0 to 3): Two
deaths during the study, all on the day of radiation (Day 0) ([2]; 30 mg/kg once daily day −1 to 3): Two
deaths during the study, all on the day of radiation (Day 0) ([2]; 30 mg/kg once daily on day 0 and day 7 (so in the source)): One
deaths during the study, all on the day of radiation (Day 0) ([2]; 30 mg/kg twice daily day −1 to 3): Two
survival status noted in Animal Weights table ([2]; first study, group 9 (30 mg/kg/dose twice daily on day 0 and on day 7), animal 70, day 0): dead
Survival (animal status in score table) ([2]; group 2): dead
Survival (animal status in score table) ([2]; group 5): dead
Survival (animal status in score table) ([2]; group 6): dead
toxicity based on observations of body weight ([2]; hamster, in vivo, ip): appear to show some toxicity
P, One-Way ANOVA on mean AUC of percentage weight gain v vehicle control ([2]; hamster, in vivo, ip, 3 mg/kg): 0.040
average weight gain, % of starting weight during the study (day 28) ([2]; hamster, in vivo, ip, 3 mg/kg): 59.3%
P, One-Way ANOVA on mean AUC of percentage weight gain v vehicle control ([2]; hamster, in vivo, ip, 10 mg/kg): 0.018
average weight gain, % of starting weight during the study (day 28) ([2]; hamster, in vivo, ip, 10 mg/kg): 56.2%
statistically significant reduction in growth rate v control ([2]; hamster, in vivo, ip, 30 mg/kg): did not exhibit some statistically significant reductions in growth rate
Survival (animal recorded dead in weight table) ([2]; second study, group 6, animal 45 on day 0, animal 46 on day 1): dead
